Reference: PMC7937321 (Genes and Environment, 2021)

Test system: TK6 cells
Experiment: Toxicoproteomic analysis of treated TK6 cells (LC-MS/MS, DEPs, enrichment analysis)
Format: cell-based, human
Conditions: specific DEPs 24-h 800 μg/mL
Description: We conducted a proteomic analysis using TK6 cells treated by 4-nitroanthranilic acid that was negative in the short-term treatment and positive in the 24 h treatment. HC Blue No. 2 gave also same test results. […]
Raw MS data were processed by MaxQuant (version 1.6.3.3) supported by the Andromeda search engine for peak detection and quantification. […]
All NaN values of log2 LFQ intensities were converted to − 7, which is approximately equivalent to the minimum value of the LFQ intensities observed in the present study. Then, fold change values were calculated by dividing LFQ intensities (antilogarithms of the log2 LFQ intensities) into sample treated groups by intensities in non-treated (control) groups, respectively (4 and 24 h treated groups). Then, log2 fold changes were calculated. […]

## Nc1cc([N+](=O)[O-])ccc1C(=O)O [4-Nitroanthranilic acid]
Down-regulated
  Count: GO:0005515 ~ protein binding: 34
Up-regulated
  Count: GO:0005515 ~ protein binding: 88
